Laboratory results: patent US20240101546A1, “HETEROARYL-ACETYLENES, PHARMACEUTICAL COMPOSITIONS THEREOF, AND THEIR THERAPEUTIC APPLICATIONS” (Eubulus Biotherapeutics Inc., priority 2020, published 2024)

Test system: lung cancer cell line NCI-H82
Assay: Cell proliferation assay, NCI-H82 (CELL-TITER GLO)
Format: cell-based
Conditions: Homo sapiens, NCI-H82, 72 h, NCI-H82 cells, 72 h incubation, cell viability by CELL-TITER GLO, top concentration 1 μM; read-out: EC50, Inhibition of NCl-H82 Cell Proliferation
Procedure, shortened: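 NCI-H82 cells, 1,000 per well in RPMI1640, were treated after overnight plating with a 3-fold dilution series from 1 μM. Viability read by CellTiter-Glo luminescence after 72 h. EC50 derived from the curves.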

| SMILES | EC50 |
| --- | --- |
| C#Cc1nc(NC(=O)N[C@@H](CO)c2ccc(N3CCCCC3)cc2)cs1 [Compound A195, (R)-1-(2-Ethynylthiazol-4-yl)-3-(2-hydroxy-1-(4-(piperidin-1-yl)phenyl)ethyl)-urea] | ≤ 200 nM |
| C#Cc1nc(NC(=O)N[C@@H](COC(N)=O)c2ccc(-c3cccc4ncccc34)cc2)cs1 [Compound A230, (R)-2-(3-(2-Ethynylthiazol-4-yl)ureido)-2-(4-(quinolin-5-yl)phenyl)ethyl carbamate] | ≤ 200 nM |
| C#Cc1nc(NC(=O)N[C@@H](C)c2ccc(-c3cccc4ncsc34)cc2)cs1 [Compound A25, (S)-1-(1-(4-(Benzo[d]thiazol-7-yl)phenyl)ethyl)-3-(2-ethynylthiazol-4-yl)urea] | ≤ 200 nM |
| C#Cc1nc(NC(=O)N[C@@H](CO)c2ccc(-c3cccc4ncsc34)cc2)cs1 [Compound A40, (R)-1-(1-(4-(Benzo[d]thiazol-7-yl)phenyl)-2-hydroxyethyl)-3-(2-ethynylthiazol-4-yl)urea] | ≤ 200 nM |
| C#Cc1nnc(NC(=O)N(C)[C@@H](COC(N)=O)c2ccc(-c3cccc(N4CCCC4)n3)cc2)s1 [Compound A95, (R)-2-(3-(5-Ethynyl-1,3,4-thiadiazol-2-yl)-1-methylureido)-2-(4-(6-(pyrrolidin-1-yl)pyridin-2-yl)phenyl)ethyl carbamate] | ≤ 200 nM |
| C#Cc1nc(NC(=O)N[C@@H](CO)c2ccc(C3=CCCCC3)cc2)cs1 [Compound A183, (R)-1-(2-Ethynylthiazol-4-yl)-3-(2-hydroxy-1-(2′,3′,4′,5′-tetrahydro-[1,1′-biphenyl]-4-yl)ethyl)urea] | ≤ 200 nM |
| C#Cc1nc(NC(=O)N[C@@H](COC(N)=O)c2ccc(-c3cccc(C4(C#N)CC4)n3)cc2)cs1 [Compound A56, (R)-2-(4-(6-(1-Cyanocyclopropyl)pyridin-2-yl)phenyl)-2-(3-(2-ethynylthiazol-4-yl)ureido)ethyl carbamate] | ≤ 200 nM |
| C#Cc1nc(NC(=O)N(C)[C@@H](CO)c2ccc(-c3ccc(F)cc3C3CC3(F)F)cn2)cs1 (stereo partly drawn) [Compound A82, 1-((1R)-1-(5-(2-(2,2-Difluorocyclopropyl)-4-fluorophenyl)pyridin-2-yl)-2-hydroxyethyl)-3-(2-ethynylthiazol-4-yl)-1-methylurea] | ≤ 200 nM |
| C#Cc1nccc(NC(=O)N[C@@H](CO)c2ccc(-c3cccc(N4CCCC4)n3)cc2)n1 [Compound A125, (R)-1-(2-Ethynylpyrimidin-4-yl)-3-(2-hydroxy-1-(4-(6-(pyrrolidin-1-yl)pyridin-2-yl)phenyl)ethyl)urea] | ≤ 200 nM |
| C#Cc1nc(NC(=O)N[C@@H](CO)c2ccc(-c3cccc(S(C)(=O)=O)c3)cc2)cs1 [Compound A186, (R)-1-(2-Ethynylthiazol-4-yl)-3-(2-hydroxy-1-(3′-(methylsulfonyl)-[1,1′-biphenyl]-4-yl)ethyl)urea] | ≤ 200 nM |
| C#Cc1nc(NC(=O)NCc2ccc(N3CCCC3C(N)=O)cc2)cs1 (centres unmarked) [Compound A31, 1-(4-((3-(2-Ethynylthiazol-4-yl)ureido)methyl)phenyl)pyrrolidine-2-carboxamide] | 200 to 1000 nM |
| C#Cc1nc(N(C)C(=O)N[C@@H](CO)c2ccc(-c3cccc4ncsc34)cc2)cs1 [Compound A112, (R)-3-(1-(4-(Benzo[d]thiazol-7-yl)phenyl)-2-hydroxyethyl)-1-(2-ethynylthiazol-4-yl)-1-methylurea] | ≤ 200 nM |
| C#Cc1nc(NC(=O)N[C@@H](COC(N)=O)c2ccc(-c3cccnc3N(C)C)cc2)cs1 [Compound A99, (R)-2-(4-(2-(Dimethylamino)pyridin-3-yl)phenyl)-2-(3-(2-ethynylthiazol-4-yl)-ureido)ethyl carbamate] | ≤ 200 nM |
| C#Cc1nc(NC(=O)N[C@@H](CO)c2ccc(-c3cccnc3C3(C#N)CC3)c(Cl)c2)cs1 [Compound A65, (R)-1-(1-(3-Chloro-4-(2-(1-cyanocyclopropyl)pyridin-3-yl)phenyl)-2-hydroxy-ethyl)-3-(2-ethynylthiazol-4-yl)urea] | ≤ 200 nM |
| C#Cc1nc(NC(=O)N[C@@H](CO)C(=O)N2CCC3(CC2)CCC(F)(F)CC3)cs1 [Compound A158, (S)-1-(1-(9,9-Difluoro-3-azaspiro[5.5]undecan-3-yl)-3-hydroxy-1-oxopropan-2-yl)-3-(2-ethynylthiazol-4-yl)urea] | ≤ 200 nM |
| C#Cc1nc(NC(=O)N[C@@H](COC(N)=O)c2ccc(C3CCCc4c3cnn4C)cc2)cs1 (stereo partly drawn) [Compound A232, (2R)-2-(3-(2-Ethynylthiazol-4-yl)ureido)-2-(4-(1-methyl-4,5,6,7-tetrahydro-1H-indazol-4-yl)phenyl)ethyl carbamate] | ≤ 200 nM |
| C#Cc1nc(NC(=O)N[C@@H](COC(N)=O)c2ccc(-c3cccc4cccnc34)cc2)cs1 [Compound A227, (R)-2-(3-(2-Ethynylthiazol-4-yl)ureido)-2-(4-(quinolin-8-yl)phenyl)ethyl carbamate] | ≤ 200 nM |
| C#Cc1nnc(NC(=O)N[C@@H](CO)c2ccc(-c3cccc(N4CCCC4)n3)cc2)s1 [Compound A93, (R)-1-(5-Ethynyl-1,3,4-thiadiazol-2-yl)-3-(2-hydroxy-1-(4-(6-(pyrrolidin-1-yl)-pyridin-2-yl)phenyl)ethyl)urea] | ≤ 200 nM |

The next lines start with the values.

| EC50 | SMILES |
| --- | --- |
| ≤ 200 nM | C#Cc1nnc(NC(=O)N[C@@H](COC(N)=O)c2ccc(-c3cccc(N4CCCC4)n3)cn2)s1 [Compound A97, (R)-2-(3-(5-Ethynyl-1,3,4-thiadiazol-2-yl)ureido)-2-(6-(pyrrolidin-1-yl)-[2,3′-bipyridin]-6′-yl)ethyl carbamate] |
| ≤ 200 nM | C#Cc1nc(NC(=O)N[C@H](CO)c2ccc(-c3cccnc3C3(C#N)CC3)c(Cl)c2)cs1 [Compound A66, (S)-1-(1-(3-Chloro-4-(2-(1-cyanocyclopropyl)pyridin-3-yl)phenyl)-2-hydroxy-ethyl)-3-(2-ethynylthiazol-4-yl)urea] |
| ≤ 200 nM | C#Cc1nc(NC(=O)N[C@@H](C(=O)NC)c2ccc(-c3cccnc3C3(C#N)CC3)c(Cl)c2)cs1 [Compound A74, (R)-2-(3-Chloro-4-(2-(1-cyanocyclopropyl)pyridin-3-yl)phenyl)-2-(3-(2-ethynyl-thiazol-4-yl)ureido)-N-methylacetamide] |
| ≤ 200 nM | C#Cc1nc(NC(=O)N[C@@H](COC(N)=O)c2ccc(-c3cc(C4(C#N)CC4)ccn3)cc2)cs1 [Compound A57, (R)-2-(4-(4-(1-Cyanocyclopropyl)pyridin-2-yl)phenyl)-2-(3-(2-ethynylthiazol-4-yl)ureido)ethyl carbamate] |
| ≤ 200 nM | C#Cc1nc(NC(=O)N[C@@H](CO)c2ccc(-c3cccc(N4CCCC4)n3)cn2)cs1 [Compound A89, (R)-1-(2-Ethynylthiazol-4-yl)-3-(2-hydroxy-1-(6-(pyrrolidin-1-yl)-[2,3′-bipyridin]-6′-yl)ethyl)urea] |
| ≤ 200 nM | C#Cc1nc(NC(=O)N[C@@H](CO)c2ccc(C3CCCCN3C(C)=O)cc2)cs1 (stereo partly drawn) [Compound A143, 1-((1R)-1-(4-(1-Acetylpiperidin-2-yl)phenyl)-2-hydroxyethyl)-3-(2-ethynyl-thiazol-4-yl)urea] |
| ≤ 200 nM | C#Cc1nc(NC(=O)N[C@@H](CO)C2CCN(c3ccccc3C#N)CC2)cs1 [Compound A150, (R)-1-(1-(1-(2-Cyanophenyl)piperidin-4-yl)-2-hydroxyethyl)-3-(2-ethynylthiazol-4-yl)urea] |
| ≤ 200 nM | C#Cc1nc(NC(=O)N[C@@H](CO)c2ccc(N3CCC(F)(F)C3)cc2)cs1 [Compound A130, (R)-1-(1-(4-(3,3-Difluoropyrrolidin-1-yl)phenyl)-2-hydroxyethyl)-3-(2-ethynyl-thiazol-4-yl)urea] |
| 200 to 1000 nM | C#Cc1nc(NC(=O)N[C@H](C)c2ccc(-c3cccc4ncsc34)cc2)cs1 [Compound A26, (R)-1-(1-(4-(Benzo[d]thiazol-7-yl)phenyl)ethyl)-3-(2-ethynylthiazol-4-yl)urea] |
| ≤ 200 nM | C#Cc1nc(NC(=O)NCc2ccc(-c3cncc(N4CCCC4)c3)cc2)cs1 [Compound A174, 1-(2-Ethynylthiazol-4-yl)-3-(4-(5-(pyrrolidin-1-yl)pyridin-3-yl)benzyl)urea] |
| ≤ 200 nM | C#Cc1nc(NC(=O)N2CCN(c3ccc(-c4cccc(N5CCCC5)c4)cc3)C[C@@H]2CO)cs1 [Compound B54, (R)—N-(2-Ethynylthiazol-4-yl)-2-(hydroxymethyl)-4-(3′-(pyrrolidin-1-yl)-[1,1′-biphenyl]-4-yl)piperazine-1-carboxamide] |
| ≤ 200 nM | C#Cc1nc(NC(=O)N2CCN(c3ccc(-c4cccc5ncsc45)cc3)C[C@@H]2CO)cs1 [Compound B24, (R)-4-(4-(Benzo[d]thiazol-7-yl)phenyl)-N-(2-ethynylthiazol-4-yl)-2-(hydroxy-methyl)piperazine-1-carboxamide] |
| ≤ 200 nM | C#Cc1nc(NC(=O)N[C@@H](CO)c2ccc(-c3cccc(C4(C#N)CC4)c3)cc2)cs1 [Compound A187, (R)-1-(1-(3′-(1-Cyanocyclopropyl)-[1,1′-biphenyl]-4-yl)-2-hydroxyethyl)-3-(2-ethynylthiazol-4-yl)urea] |
| ≤ 200 nM | C#Cc1nc(NC(=O)N[C@@H](CO)c2ccc(-c3cccnc3N(C)C)cc2)cs1 [Compound A98, (R)-1-(1-(4-(2-(Dimethylamino)pyridin-3-yl)phenyl)-2-hydroxyethyl)-3-(2-ethynylthiazol-4-yl)urea] |
| ≤ 200 nM | C#Cc1nc(NC(=O)N[C@@H](CO)c2ccc(-c3cccnc3N3CC(F)(F)C3)cc2)cs1 [Compound A102, (R)-1-(1-(4-(2-(3,3-Difluoroazetidin-1-yl)pyridin-3-yl)phenyl)-2-hydroxyethyl)-3-(2-ethynylthiazol-4-yl)urea] |
| 200 to 1000 nM | C#Cc1nc(NC(=O)NCc2ccc(-c3cc(N4CCCC4)ccn3)cc2)cs1 [Compound A173, 1-(2-Ethynylthiazol-4-yl)-3-(4-(4-(pyrrolidin-1-yl)pyridin-2-yl)benzyl)urea] |
| 200 to 1000 nM | C#Cc1nc(NC(=O)NCC(=O)N2CC(c3ccccc3C#N)C2)cs1 [Compound A34, 1-(2-(3-(2-Cyanophenyl)azetidin-1-yl)-2-oxoethyl)-3-(2-ethynylthiazol-4-yl)urea] |
